Test results as given in US20250002461A1, “DEUTERATED (TRIFLUOROMETHYL)PYRIMIDINE-2-AMINE COMPOUNDS AS POTENTIATORS OF THE HMRGX1 RECEPTOR” (Eli Lilly and Company, priority 2021, published 2025).
Where two headings read alike, the source gives them in different places.

Tests used:
[1] = Determination of pharmacokinetics in mice; type: in vivo, mouse; settings: male CD-1 mice; for CLIV / Vd: IV 1 mg/kg; for Vd / bioavailability: mouse, whole blood (dried blood spot); for Vd: read-out: Vd, ss; for bioavailability: PO 10 mg/kg vs IV 1 mg/kg
Protocol: Determination of Pharmacokinetics in Mice
Subjects: The subjects for these studies were male CD-1 mice from either Envigo, (Indianapolis, IN, USA) or Charles River Laboratories, Inc (Raleigh, NC, USA) between 4-12 weeks old at time of test. Each dosing group has three animals, and food and water is available ad libitum.
Dosing and Sample Collection: The test compound was administered intravenously (IV) via tail vein at 1 mg/kg (using vehicle: 25% (v/v) Dimethylacetamide (DMA), 15% (v/v) Ethanol (EtOH), 10% (v/v) Propylene Glycol (PG), 25% 2-Pyrrolidone (2-P), and 25% purified water) and orally (PO) via gavage needle at 10 mg/kg (using a vehicle of 1% (w/v) Hydroxyethylcellulose, 0.25% (w/v) Polysorbate 80, 0.05% (v/v) Antifoam1510-US in purified water quantum satis. Blood for dried blood spot (DBS) collection (approximately 20 μL) was collected from each available animal via a saphenous vein utilizing K2EDTA capillary tubes and stored at ambient temperature until analysis. Serial blood samples are collected at 0.08, 0.25, 0.5, 1, 2, 4, 8, 12, 24, and 48 h post dose for IV bolus and at 0.25, 0.5, 1, 2, 4, 8, 12, 24, and 48 h post dose after oral administration.
Sample Analysis: DBS cards (3 mm punches) of samples or standards were each mixed with a 180 uL solution of methanol: acetonitrile (1/1, v/v) containing internal standard to extract analyte followed by a two-fold dilution with water. A 10 uL aliquot of sample or standard is analyzed using an LC-MS/MS method. For Compound A, the lower limit of quantification (LLQ) was 5 ng/ml and the upper limit of quantification (ULQ) was 2500 ng/mL. For the compound of Example 1, the LLQ was 10 ng/ml and ULQ was 10,000 ng/mL
Calculation of pharmacokinetic parameters: Test article concentration data was uploaded into the Thermo Scientific™ Watson LIMS™ system where noncompartmental analysis was used to calculate Area Under the Curve (AUC) for both IV and PO arms, and Mean Residence Time (MRT) from the IV arm. • Bioavailability (% F) was calculated as follows,
[formula] • IV Clearance (CLIV) was calculated as follows,
[formula] • Volume of distribution at steady state (Vd,ss) was calculated as follows, […]

[2] = Intrinsic clearance in human cryopreserved hepatocytes; type: in vitro ADME; settings: 0.3 μM substrate, 37° C.
Protocol: (§1) In Vitro Determination of Intrinsic Clearance in Mice and Human Hepatocytes
(§2) Cryopreserved hepatocytes are used to determine the in vitro metabolic clearance of pharmaceutical candidates. The following assay was conducted to compare the compound of Example 1 to its undeuterated analog, referred to hereinafter as Compound A:
(§3) Compound incubations (0.3 μM substrate concentrations) were then performed in a 96-well plate format at 37° C. with 200,000 cells/well, shaking at approximately 600 rpm. Incubations were initiated by direct addition of 2 μL of the substrate compounds. At 0, 15, 30, 60, and 90 minutes, 20 μL of incubation samples were quenched with 80 μL acetonitrile containing internal standard. Quenched plates were foil sealed, centrifuged for 30 minutes at 4000 rpm and analyzed for substrate by liquid chromatography with tandem mass spectrometry (LC-MS/MS).
(§4) Intrinsic clearance is a measure of the maximum potential liver metabolism of a compound when not restricted by blood flow or protein binding This intrinsic clearance was determined from the elimination rate constants (kdep; min^−1) measured from the disappearance of substrate in the incubations over time, using the following equation: […]

[3] = Intrinsic clearance in mouse cryopreserved hepatocytes; type: in vitro ADME; settings: 0.3 μM substrate, 37° C.
Protocol: as §1, §2, §3, §4

[4] = target: T1, human MrgX1 receptor (Homo sapiens, UniProt Q96LB2); assay: IP1 cellular assay for EC50 determination against hMrgX1 by HTRF; type: cell-based; settings: for EC50: HEK293 cells expressing human MrgX1, in presence of EC15 of BAM8-22, geometric mean (SEM, n), read-out: Relative EC50 (SEM, n); for Max (Mean ± SEM): maximum stimulation relative to saturating BAM8-22
T1 construct: expressed in transfected cells
Protocol: IP1 Cellular Assay for EC50 Determination Against hMrgX1 by HTRF
Cell plating: HEK293 cells stably expressing the recombinant human MrgX1 receptor were expanded in culture flasks (Corning, T150), using growth media containing DMEM with glutamine (GIBCO™ Cat. #11960-044) supplemented with 10% heat-inactivated FBS (HyClone™, Cat. #CH30073), 1% penicillin/streptomycin (HyClone™, Cat. #SV30010; 10,000 U/mL penicillin; 10,000 μg/mL streptomycin in 0.85% NaCl), 20 mM HEPES (GIBCO™, Cat. #15630122) and 0.3 mg/mL G418 (GIBCO™ Cat. #11811031). When cell monolayers achieved a level of 80-90% confluence, monolayers were washed once with 10 mL of DPBS (HyClone™, Cat. #14190-144), dissociated using TrypLE™ Express enzyme cell dissociation media (GIBCO™ Cat. #12605-010), and were diluted by addition of 10 mL DPBS. Dissociated cells were transferred to a sterile 50 mL conical tube, pelleted by centrifugation at 300×g to remove the growth and dissociation media, and diluted to 1M cells/mL into DMEM for plating.
IP1 Potency and Efficacy Determination: Test compounds were dissolved in DMSO to a concentration of 10 mM and serially diluted in DMSO to obtain a 10-point concentration response stock dilution plate. Growth media was removed from the cell plate, and the stock 10-point dilution plate was diluted into media and stamped into the cell plate at a concentration 2× higher than the final test concentration of […] maximum. The endogenous agonist BAM8-22 (Tocris-BioScience Cat. #1763) was diluted to the EC15, determined independently at a minimum of n=3, into the cell plate and incubated at room temperature for 120 min. Subsequently, half the volume each of anti-IP1 cryptate and d2-labeled IP1 in lysis buffer, supplied with the IP-One Gq Kit (CisBio Cat. #62IPAPEC) was added to the cell plate to initiate cell lysis, and incubated for 60 min at room temperature in the dark. Fluorescence was then determined at 620 and 665 nm (˜100 us following laser excitation).
Data Analysis: Fluorescent ratios were determined as the ratio of the fluorescence emission at 665 nm over 620 nm and converted to IP1 concentration, using the IP1 standard curve generated in a separate plate, following the manufacturer's instructions. The IP1 concentration was then plotted as a function of compound concentration. […]

[5] = Plasma and brain homogenate protein binding by equilibrium dialysis; type: in vitro ADME, mouse
Protocol: Determination of plasma and brain protein binding: Mouse plasma and brain homogenate protein binding was determined in vitro using equilibrium dialysis, as described elsewhere [Zamek-Gliszczynski et al., J Pharm Sci, 101:1932-1940, 2012]. The results are reported as fraction unbound in plasma (fu,plasma) and brain (fu,brain) which are then utilized to calculate Kp,uu,brain as described below. Mouse fu,plasma and fu,brain of Example 1 was determined to be 0.0667 and 0.011, respectively.

[6] = In vivo determination of Kp,uu,brain in mice; settings: male, CD1 (ICR), mouse, 100 mg/kg oral
Excerpt: In Vivo Determination of Kp,uu,Brain in Mice
Unbound brain-to-plasma partition coefficient (Kp,uu,brain) is one of the key pharmacokinetic parameters for evaluating a compound's ability to cross the blood-brain barrier (BBB). It is typically measured in pre-clinical species using the following methodology. Kp,uu,brain values indicate the fraction of free drug in plasma that partitions across the BBB.
Subjects: The subjects for these studies were 12 male CD1 (ICR) mice (Envigo, Indianapolis, IN, USA) between 5-7 weeks old at time of test. Mice were housed in groups of 4 in high density plastic home cages. Food and water were available ad libitum. The rooms were maintained at 73° F. with 30-70% relative humidity and kept on a light/dark cycle of 0600-1800 h.
Agent: The compound of Example 1 was prepared at 10 mg/ml in the 1% HEC, 0.25% TWEEN®80, 0.05% DOWSIL™ vehicle in water. Prepared compound was sonicated in water bath for 30 min until a suspension was formed. Mice were dosed orally at 10 ml/kg for a 100 mg/kg dose.
Dosing and Tissue Collection: For this experiment, ten mice received oral dosing of 100 mg/kg of the compound of Example 1. Mice were then euthanized at 2 h post-dosing via CO2 asphyxiation, plasma samples were collected via cardia puncture, and mouse brains removed, weighed, and frozen on dry ice. Blood samples were stored in EDTA tubes on wet ice and centrifuged at 15 k rpm for 10 min. Plasma was collected, plated in a 96-well plate, and frozen at −80° C.
Pharmacokinetic sampling: Plasma and brain samples obtained were analyzed for Example 1 using an LC-MS/MS method (Q2 Solutions, Indianapolis, IN, USA). Plasma samples were extracted using protein precipitation. The lower limit of quantification was 25 ng/mL, and the upper limit of quantification was 5000 ng/mL. Brain samples were homogenized, and the analyte was extracted using protein precipitation. The lower limit of quantification was 4 ng/g and the upper limit of quantification was 200000 ng/g.
Analysis and Results: Kp,uu,brain was calculated for each time point from the expression below where individual components are derived from a combination of in vitro and in vivo measurements carried out as described above:
where Ctotal,brain, Cu,brain, Ctotal,plasma, and Cu,plasma are total and unbound brain and plasma concentrations, and fu,brain and fu,plasma are fractions unbound in brain and plasma, respectively.

T1 sequence (Q96LB2 whole entry): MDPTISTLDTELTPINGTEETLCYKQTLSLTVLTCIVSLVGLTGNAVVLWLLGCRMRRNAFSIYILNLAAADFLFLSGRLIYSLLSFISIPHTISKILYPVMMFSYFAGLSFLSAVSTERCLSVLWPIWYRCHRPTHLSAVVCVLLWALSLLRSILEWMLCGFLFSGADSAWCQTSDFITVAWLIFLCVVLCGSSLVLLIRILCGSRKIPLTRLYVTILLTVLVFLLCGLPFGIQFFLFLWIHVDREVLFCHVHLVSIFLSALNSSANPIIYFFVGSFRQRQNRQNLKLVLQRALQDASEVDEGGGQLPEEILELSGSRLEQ

CLIV [1] [mL/min/kg]	Vd [1] [L/kg]	bioavailability [1] [%]	hepatocyte CLint at 0.3 μM [2] [µL/min/1e6 cells]	hepatocyte CLint at 0.3 μM [3] [µL/min/1e6 cells]	EC50 [4] [nM]	Max (Mean ± SEM) [4]	fraction unbound ([5]; mouse brain homogenate, read-out: fraction unbound in brain (fu,brain))	fraction unbound ([5]; mouse plasma, read-out: fraction unbound in plasma (fu,plasma))	concentration at 2 h ([6]; brain (unbound), 2 h, using mouse fu,brain 0.011, read-out: Unbound brain conc. (Cu, brain) ± SD) [µM]	concentration at 2 h ([6]; brain, 2 h post dose, read-out: Total brain conc. (Ctotal, brain) ± SD) [µM]	concentration at 2 h ([6]; plasma (unbound), 2 h, using mouse fu,plasma 0.0667, read-out: Unbound plasma conc. (Cu, plasma) ± SD) [µM]	concentration at 2 h ([6]; plasma, 2 h post dose, read-out: Total plasma conc. (Ctotal, plasma) ± SD) [µM]	Kp uu at 2 h ([6]; 2 h, unbound brain-to-plasma partition coefficient)	SMILES
16.1 ± 1.7	6.6 ± 0.1	34 ± 3.7	2.62	< 1.8										Cc1c(Oc2c(F)cc(C#N)cc2F)nc(N)nc1C(F)(F)F [Compound A, reference compound]
7.7 ± 1.3	9.5 ± 3.1	60 ± 2.6	6.47	< 1.8	22	111 ± 14.9, n = 4%	0.011	0.0667	0.706 ± 0.25	64.1 ± 22.7	1.25 ± 0.418	18.8 ± 6.26	0.586	[2H]C([2H])([2H])c1c(Oc2c(F)cc(C#N)cc2F)nc(N)nc1C(F)(F)F [Example 1, 4-[2-amino-5-(trideuteriomethyl)-6-(trifluoromethyl)pyrimidin-4-yl]oxy-3,5-difluoro-benzonitrile]
					28	106 ± 8.16, n = 4%								[2H]C([2H])([2H])c1c(Oc2c(F)cccc2F)nc(N)nc1C(F)(F)F [Example 2, 4-(2,6-difluorophenoxy)-5-(trideuteriomethyl)-6-(trifluoromethyl)pyrimidin-2-amine]
